From article PMC5680178, “D-Cateslytin, a new antimicrobial peptide with therapeutic potential” (Scientific Reports, 2017)
Converted amounts (≈) assume the structure as drawn. Where two headings read alike, the source gives them in different places. Non-standard residues stand in square brackets, D forms with d. Residues, ends and D or L forms follow the SMILES beside them. No end group written: not given here.

Legend:
[1] = tested on: Staphylococcus aureus (MRSA) (S1); assay: microbe, parasite or virus in culture; settings: 24 h, read-out: MIC (MIC alone)
Experimental: (§5) According to the European Committee on Antimicrobial Susceptibility Testing[20], the effect of a combination between two antibacterial compounds can be evaluated by their FICI (Fractional Inhibitory Concentration Index). The FICI consists of the sum of the FICs of both antibacterial agents: FIC index = FICantimicrobial + FICD-Ctl. For each compound, the FIC was determined as the ratio between the MIC of the compound in combination (MICcombination) and the MIC of the compound acting alone (MICalone). On the basis of their FIC index, each combination was categorized as synergistic (≤0.5), additive (>0.5 to 1), indifferent (>1 to <4) or antagonistic (≥4).
(§6) Microorganisms were cultured according to the manufacturer’s or the owner’s instructions in their respective media: Luria Bertani broth (Sigma) was used for E. coli strains, Mueller Hinton broth (Difco) for S. aureus strains and Anaerobe Basal broth (Oxoid) for F. nucleatum, P. intermedia and P. micra.
(§7) The MIC was determined by broth microdilution. An overnight culture of each bacterial strain was diluted (approximately to OD600 = 0,001) and microorganisms were plated in 96-well plates in the presence of different concentrations of antimicrobials, D-Ctl or L-Ctl alone or in combination. Three technical replicates were performed for each condition. After 24 hours of incubation, the microorganism growth was assessed by optical density OD600 using a Multiskan™ EX microplate spectrophotometer (Thermo Fisher Scientific). […] Each experiment was performed with at least three biological replicates.

[2] = tested on: Staphylococcus aureus (MRSA) (S1); settings: for FIC: MICcombination/MICalone; for FICI: sum of both FICs
Experimental: as §5, §6, §7

[3] = tested on: Escherichia coli (ATCC 25922); assay: microbe, parasite or virus in culture; type: cell-based
Experimental: (§1) The MIC was determined by broth microdilution. […] Three technical replicates were performed for each condition.

[4] = tested on: Staphylococcus aureus (MSSA) (ATCC 25923); assay: microbe, parasite or virus in culture; settings: for FIC: MICcombination/MICalone; for FICI: sum of both FICs
Experimental: as §1

[5] = tested on: Fusobacterium nucleatum (ATCC 49256); settings: for MIC (MIC alone): ATCC 49256, 24 h; for FICI: sum of both FICs
Experimental: as §5, §6, §7

[6] = tested on: Escherichia coli (MDR) (K-12); settings: for MIC (MIC alone): broth microdilution, Luria Bertani broth, 24 h, OD600, lowest concentration inhibiting 100% of inoculum, modified Gompertz function, biological replicates; for FIC: MICcombination/MICalone; for FICI: sum of both FICs
Experimental: as §5, §6, §7

[7] = tested on: secreted proteases from P. micra; settings: 400 μL filtered culture supernatant of P. micra, 37 °C, 24 hours; RP-HPLC C18, 214 nm, versus peptide in water
Experimental: (§2) Bacterial supernatant was prepared as follows: a single colony of each strain was resuspended in 5 mL of culture medium as indicated above and incubated at 37 °C overnight. The culture was then centrifuged at 10000 g for 1 min and the supernatant was filtered using a […] MillexH-GV (Millipore, Carrigtwohill, Ireland). An aliquot of each supernatant was incubated at 37 °C for 48 hours. Absence of growth was interpreted as lack of viable microorganism. 400 μL of supernatant was then incubated with or without each peptide of interest at 37 °C for 24 hours. As a control, each peptide was incubated in water at 37 °C for 24 hours. Samples were then separated using a Dionex HPLC system (Ultimate 3000; Sunnyvale, CA USA) on a Nucleosil reverse-phase 300–5C18-column ([…]; particle size: […]; porosity, 300 Å) (Macherey Nagel, Hoerdt, France). Absorbance was monitored at 214 nm and the solvent system consisted of 0.1% (v/v) TFA in water (solvent A) and 0.09% (v/v) TFA in 70% (v/v) acetonitrile-water (solvent B). Elution was performed at a flow rate of […] with a gradient of solvent B as indicated on the chromatograms.

[8] = tested on: secreted proteases from E. coli wild type; settings: 400 μL filtered culture supernatant of E. coli wild type, 37 °C, 24 hours; RP-HPLC C18, 214 nm, versus peptide in water
Experimental: as §2

[9] = tested on: secreted proteases from E. coli MDR; settings: 400 μL filtered culture supernatant of E. coli MDR, 37 °C, 24 hours; RP-HPLC C18, 214 nm, versus peptide in water
Experimental: as §2

[10] = tested on: secreted proteases from F. nucleatum; settings: 400 μL filtered culture supernatant of F. nucleatum, 37 °C, 24 hours; RP-HPLC C18, 214 nm, versus peptide in water
Experimental: as §2

[11] = tested on: secreted proteases from P. intermedia; settings: 400 μL filtered culture supernatant of P. intermedia, 37 °C, 24 hours; RP-HPLC C18, 214 nm, versus peptide in water
Experimental: as §2

[12] = tested on: Parvimonas micra (ATCC 33270); settings: for MIC (MIC alone): broth microdilution, Anaerobe Basal broth, 24 h, OD600, 100% inhibition, modified Gompertz function, biological replicates; for FIC: MICcombination/MICalone; for FICI: sum of both FICs
Experimental: as §5, §6, §7

[13] = tested on: secreted proteases from S. aureus methicillin sensitive (MSSA); settings: supernatant of MSSA, previous study; cited from earlier work
Source text: (§3) Linear L-peptides with α-helical structures are usually susceptible to proteolysis. […] The specific spatial configurations of the cleavage sites for these enzymes are not present in D-peptides although these peptides might be cleaved by non-specific hydrolysis during enzymatic digestion. Subsequently, we assessed the sensitivity of D-Ctl to secreted bacterial proteases by HPLC. To this aim, different bacterial ...

[14] = tested on: secreted proteases from S. aureus methicillin resistant (MRSA); settings: supernatant of MRSA, previous study; cited from earlier work
Source text: as §3

[15] = tested on: Prevotella intermedia (ATCC 49046); settings: for MIC (MIC alone): ATCC 49046, 24 h; for FICI: sum of both FICs
Experimental: as §5, §6, §7

[16] = tested on: epithelial cells, smooth muscle cells and T cells; settings: cited from earlier work
Source text: In the last decade, there have been a few HDPs entering clinical trials, specifically cathelicidins and defensins natural peptides or derivatives such as LL-37, MBI-226 (studies NCT00211523, NCT00211497 and NCT00027248 for the prevention of central venous catheter-related bloodstream infections and acne) and PMX-30063 (study NCT01211470 for acute bacterial skin and skin-structure infection). However, the clinical and commercial development of these peptide-based drugs has some limitations such as high cost of production, susceptibility to proteases and cytotoxicity. For example, the human cath ...

[17] = tested on: V8; settings: cited from earlier work
Source text: (§4) To this aim, different bacterial ...

[18] = tested on: aureolysin; settings: cited from earlier work
Source text: as §4

[19] = tested on: E. coli (ATCC 25922) wild type; settings: cultured with ½ MIC of the agent, diluted daily, for 24 days; value at day 24; three technical replicates
Experimental: An E. coli (ATCC® 25922™) culture was sequentially diluted every day in the presence of the different antibacterial compounds: D-Ctl, ampicillin or cefotaxime at ½ MIC during 24 days. The changes in the MICs values were determined as previously described by broth microdilution at the indicated times. The experiment was performed with three technical replicates.

[20] = tested on: secreted proteases from S. aureus methicillin sensitive (MSSA); settings: 400 μL filtered culture supernatant of MSSA, 37 °C, 24 hours; RP-HPLC C18, 214 nm, versus peptide in water
Experimental: as §2

[21] = tested on: secreted proteases from S. aureus methicillin resistant (MRSA); settings: 400 μL filtered culture supernatant of MRSA, 37 °C, 24 hours; RP-HPLC C18, 214 nm, versus peptide in water
Experimental: as §2

[22] = tested on: Parvimonas micra (ATCC 33270); assay: microbe, parasite or virus in culture; settings: ATCC33270, 24 h, read-out: MIC (MIC alone)
Experimental: as §5, §6, §7

[23] = tested on: Prevotella intermedia (ATCC 49046); assay: microbe, parasite or virus in culture; settings: ATCC49046, 24 h, read-out: MIC (MIC alone)
Experimental: as §5, §6, §7

[24] = tested on: Fusobacterium nucleatum (ATCC 49256); assay: microbe, parasite or virus in culture; settings: ATCC49256, 24 h, read-out: MIC (MIC alone)
Experimental: as §5, §6, §7

[25] = tested on: Escherichia coli (MDR) (K-12); assay: microbe, parasite or virus in culture; settings: 24 h, read-out: MIC (MIC alone)
Experimental: as §5, §6, §7

[26] = combination D-Ctl + methicillin
[27] = combination D-Ctl + amoxicillin
[28] = broth microdilution, Mueller Hinton broth, 24 h, OD600, 100% inhibition, modified Gompertz function, biological replicates
[29] = combination D-Ctl + amoxicillin, MICcombination/MICalone
[30] = combination D-Ctl + amoxicillin, category by FIC index

CN[C@H](CC(C)C)C(=O)N[C@H]1C(=O)N[C@@H](CC(N)=O)C(=O)N[C@H]2C(=O)N[C@H]3C(=O)N[C@H](C(=O)N[C@H](C(=O)O)c4cc(O)cc(O)c4-c4cc3ccc4O)[C@H](O)c3ccc(c(Cl)c3)Oc3cc2cc(c3O[C@@H]2O[C@H](CO)[C@@H](O)[C@H](O)[C@H]2O[C@H]2C[C@](C)(N)[C@H](O)[C@H](C)O2)Oc2ccc(cc2Cl)[C@H]1O [Vancomycin]
MIC [1]: 0.8 µg/mL (≈ 0.552 µM) | FIC ([2]; combination D-Ctl + vancomycin): 1 | Effect ([2]; combination D-Ctl + vancomycin, category by FIC index): Indifferent | FICI ([2]; combination D-Ctl + vancomycin): 2

NC[C@H]1O[C@H](O[C@H]2[C@H](O)[C@@H](O[C@H]3O[C@H](CO)[C@@H](O)[C@H](N)[C@H]3O)[C@H](N)C[C@@H]2N)[C@H](O)[C@@H](O)[C@@H]1O [Kanamycin]
MIC ([3]; broth microdilution, Luria Bertani broth, 24 h, OD600, lowest concentration inhibiting 100% of inoculum, modified Gompertz function, biological replicates): 21.6 µg/mL (≈ 44.6 µM)

COc1cccc(OC)c1C(=O)N[C@@H]1C(=O)N2[C@@H]1SC(C)(C)[C@@H]2C(=O)O [Methicillin]
MIC ([4]; Staphylococcus aureus, 24 h, read-out: MIC (MIC alone)): 1.2 µg/mL (≈ 3.15 µM) | FIC [4, 26]: 0.25 | MIC combination ([4]; combination D-Ctl + methicillin, broth microdilution, at least in duplicate): 0.3 µg/mL | Effect ([4]; combination D-Ctl + methicillin, category by FIC index): Additive | FICI [4, 26]: 0.75

RSMRLSFRARGYGFR [L-Ctl, L-Cateslytin]
MIC ([3]; ATCC 25922, 24 h): 75 µg/mL | MIC (MIC alone) [5]: 125 µg/mL | MIC (MIC alone) [6]: 150 µg/mL | stability in bacterial supernatant [7]: resistant to the degradation | stability in bacterial supernatant [8]: degraded | stability in bacterial supernatant [9]: degraded | stability in bacterial supernatant [10]: resistant to the degradation | stability in bacterial supernatant [11]: resistant to the degradation | MIC (MIC alone) [12]: 120 µg/mL | stability in bacterial supernatant [13]: stable | stability in bacterial supernatant [14]: stable | MIC (MIC alone) [15]: 149 µg/mL

LL-37: human cathelicidin host defence peptide
level at which apoptosis is enhanced [16]: above 10 µM | proteolysis by secreted S. aureus protease [17]: cleavage | proteolysis by secreted S. aureus protease [18]: cleavage

CC1(C)S[C@@H]2[C@H](NC(=O)[C@H](N)c3ccccc3)C(=O)N2[C@H]1C(=O)O [Ampicillin]
MIC ([3]; Escherichia coli, ATCC25922, broth microdilution, Luria Bertani broth, 24 h, OD600, lowest concentration inhibiting 100% of inoculum, modified Gompertz function, biological replicates, read-out: MIC): 7 µg/mL (≈ 20 µM) | fold change in MIC under selective pressure [19]: 3 x MIC

CSCC[C@@H](NC(=O)[C@@H](CO)NC(=O)[C@H](N)CCCNC(=N)N)C(=O)N[C@H](CCCNC(=N)N)C(=O)N[C@H](CC(C)C)C(=O)N[C@H](CO)C(=O)N[C@H](Cc1ccccc1)C(=O)N[C@H](CCCNC(=N)N)C(=O)N[C@H](C)C(=O)N[C@H](CCCNC(=N)N)C(=O)NCC(=O)N[C@H](Cc1ccc(O)cc1)C(=O)NCC(=O)N[C@H](Cc1ccccc1)C(=O)N[C@H](CCCNC(=N)N)C(=O)O [D-Ctl, D-Cateslytin] (H-[dR][dS][dM][dR][dL][dS][dF][dR][dA][dR]G[dY]G[dF][dR]-OH)
MIC ([3]; ATCC 25922, 24 h): 8.0 µg/mL (≈ 4.3 µM) | MIC (MIC alone) [5]: 22 µg/mL (≈ 11.8 µM) | FICI [5, 27]: 1.0 | MIC (MIC alone) [4, 28]: 24 µg/mL (≈ 12.9 µM) | FIC [4, 26]: 0.5 | FICI [4, 26]: 0.75 | MIC (MIC alone) [6]: 8.4 µg/mL (≈ 4.52 µM) | FIC ([6]; combination D-Ctl + cefotaxime): 0.5 | FICI ([6]; combination D-Ctl + cefotaxime): 1.0 | stability in bacterial supernatant [20]: not degraded | stability in bacterial supernatant [7]: not degraded | stability in bacterial supernatant [21]: not degraded | stability in bacterial supernatant [8]: not degraded | stability in bacterial supernatant [9]: not degraded | stability in bacterial supernatant [10]: not degraded | stability in bacterial supernatant [11]: not degraded | MIC (MIC alone) [12]: 23 µg/mL (≈ 12.4 µM) | FIC [12, 27]: 0.25 | FICI [12, 27]: 0.5 | MIC (MIC alone) [2, 28]: 18 µg/mL (≈ 9.68 µM) | FIC ([2]; combination D-Ctl + vancomycin): 1 | FICI ([2]; combination D-Ctl + vancomycin): 2 | MIC (MIC alone) [15]: 10 µg/mL (≈ 5.38 µM) | FICI [15, 27]: 0.5

CC1(C)S[C@@H]2[C@H](NC(=O)[C@H](N)c3ccc(O)cc3)C(=O)N2[C@H]1C(=O)O [Amoxicillin]
FIC [5, 29]: 0.5 | Effect [5, 30]: Additive | FICI [5, 27]: 1.0 | MIC [22]: 0.5 µg/mL (≈ 1.37 µM) | MIC [23]: 0.5 µg/mL (≈ 1.37 µM) | FIC [12, 27]: 0.25 | Effect [12, 30]: Synergistic | FICI [12, 27]: 0.5 | MIC [24]: 0.6 µg/mL (≈ 1.64 µM) | FIC [15, 29]: 0.25 | Effect [15, 30]: Synergistic | FICI [15, 27]: 0.5

CO/N=C(\C(=O)N[C@@H]1C(=O)N2C(C(=O)O)=C(COC(C)=O)CS[C@H]12)c1csc(N)n1 [Cefotaxime]
MIC [25]: 0.1 µg/mL (≈ 0.22 µM) | FIC ([6]; combination D-Ctl + cefotaxime): 0.5 | Effect ([6]; combination D-Ctl + cefotaxime, category by FIC index): Additive | FICI ([6]; combination D-Ctl + cefotaxime): 1.0 | fold change in MIC under selective pressure [19]: 3 x MIC
